The text below walks through data of US7205295B2, “Benzoxazin-3-ones and derivatives thereof as therapeutic agents” (Warner-Lambert Company LLC, priority 2002, dated 2007).

The target of the experiment is T1, PI3Kγ (p101/p110γ protein) (Homo sapiens, UniProt P48736).
T1 construct: HA; made in house; host or cells: Spodoptera frugiperda (Sf9) cells, baculovirus co-infection
T1 sequence (P48736 whole entry, species assumed): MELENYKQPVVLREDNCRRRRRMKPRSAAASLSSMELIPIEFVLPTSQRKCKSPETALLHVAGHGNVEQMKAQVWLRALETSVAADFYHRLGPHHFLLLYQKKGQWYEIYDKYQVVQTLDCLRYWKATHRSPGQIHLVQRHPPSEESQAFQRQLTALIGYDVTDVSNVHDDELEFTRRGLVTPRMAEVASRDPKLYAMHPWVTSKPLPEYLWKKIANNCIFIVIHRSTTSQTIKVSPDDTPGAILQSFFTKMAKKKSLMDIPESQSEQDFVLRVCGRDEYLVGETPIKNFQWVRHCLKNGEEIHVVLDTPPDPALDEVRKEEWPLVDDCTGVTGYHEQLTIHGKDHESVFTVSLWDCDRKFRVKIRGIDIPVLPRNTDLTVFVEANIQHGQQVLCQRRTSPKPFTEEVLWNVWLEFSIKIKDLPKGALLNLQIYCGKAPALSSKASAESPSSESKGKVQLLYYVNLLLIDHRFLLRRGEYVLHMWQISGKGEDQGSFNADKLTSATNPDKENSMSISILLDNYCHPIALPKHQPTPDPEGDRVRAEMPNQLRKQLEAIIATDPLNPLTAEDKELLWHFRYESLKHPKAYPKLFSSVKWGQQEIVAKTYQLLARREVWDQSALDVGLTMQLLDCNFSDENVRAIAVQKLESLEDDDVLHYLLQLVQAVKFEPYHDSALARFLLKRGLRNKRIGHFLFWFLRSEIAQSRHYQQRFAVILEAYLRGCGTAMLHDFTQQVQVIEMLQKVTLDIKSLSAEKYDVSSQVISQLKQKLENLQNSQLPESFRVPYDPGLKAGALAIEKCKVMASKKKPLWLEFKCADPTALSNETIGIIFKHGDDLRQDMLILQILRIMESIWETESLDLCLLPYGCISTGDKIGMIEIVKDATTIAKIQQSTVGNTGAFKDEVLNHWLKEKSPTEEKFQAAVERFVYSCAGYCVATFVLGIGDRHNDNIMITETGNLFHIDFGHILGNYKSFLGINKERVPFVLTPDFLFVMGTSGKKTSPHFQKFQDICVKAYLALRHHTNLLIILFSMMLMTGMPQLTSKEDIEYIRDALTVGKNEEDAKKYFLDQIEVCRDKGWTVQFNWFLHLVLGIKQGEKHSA
T1 sequence (Q8WYR1 whole entry partner, species assumed): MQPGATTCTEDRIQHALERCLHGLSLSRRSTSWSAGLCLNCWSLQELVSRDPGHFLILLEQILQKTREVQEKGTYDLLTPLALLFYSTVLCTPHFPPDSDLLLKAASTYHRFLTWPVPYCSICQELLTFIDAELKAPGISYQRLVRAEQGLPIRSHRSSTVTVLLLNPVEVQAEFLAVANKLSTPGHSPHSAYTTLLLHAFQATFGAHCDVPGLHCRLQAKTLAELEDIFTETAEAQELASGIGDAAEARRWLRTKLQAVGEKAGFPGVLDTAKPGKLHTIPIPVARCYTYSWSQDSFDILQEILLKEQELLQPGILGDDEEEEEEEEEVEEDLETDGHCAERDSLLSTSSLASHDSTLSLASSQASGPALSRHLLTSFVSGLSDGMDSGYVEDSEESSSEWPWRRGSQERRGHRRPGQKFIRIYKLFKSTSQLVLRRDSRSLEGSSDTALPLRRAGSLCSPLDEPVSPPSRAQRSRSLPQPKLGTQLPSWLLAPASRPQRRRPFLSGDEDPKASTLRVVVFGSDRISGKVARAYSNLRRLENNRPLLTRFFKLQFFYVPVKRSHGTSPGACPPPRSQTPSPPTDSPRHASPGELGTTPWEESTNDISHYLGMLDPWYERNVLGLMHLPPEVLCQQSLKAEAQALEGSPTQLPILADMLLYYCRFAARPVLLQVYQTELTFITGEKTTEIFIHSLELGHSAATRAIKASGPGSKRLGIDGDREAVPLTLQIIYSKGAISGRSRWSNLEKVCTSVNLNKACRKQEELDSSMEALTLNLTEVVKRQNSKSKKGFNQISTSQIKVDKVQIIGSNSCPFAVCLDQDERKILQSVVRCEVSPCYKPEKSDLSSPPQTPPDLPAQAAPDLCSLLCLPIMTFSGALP
As to the kind of experiment: PI3Kγ In Vitro Kinase Assay. The class given is biochemical. Particulars: purified recombinant p101/p110γ with G protein β1/γ2 subunits; 20 μM ATP, 25 μM PIP2; 20 minutes at room temperature. As for the experimental part:
Spodtera frugiperda cells, grown in ESF921 media, were coinfected with baculovirus expressing a glu-tagged p101 and baculovirus expressing an HA-tagged p110γ, at a 3:1 ratio of p101 baculovirus to p110γ baculovirus. Sf9 cells were grown to 1×10^7 total cells/mL in 10L bioreactors and harvested 48-72 hours post infection. Samples of infected cells were then tested for expression of p101/p110γ PI3 kinase by immunoprecipitation and Western Blot analysis methods (see below). […] NaCl was added to 150 mM, and sodium cholate was added to 1% and mixed for another 45 minutes. The lysates were clarified by centrifugation for 25 minutes at 14,000 rpm. The lysates were then loaded over anti-glu-linked Protein-G Sepaharose beads (Covance Research Products, Richmond, Calif.) using 20 mL resin/50 g cell paste. […] PI3Kγ was eluted with 6 column volumes of wash buffer that contain 100 μg/mL of a peptide that competes for binding of the glu tag. […] The fractions were stored at -80° C. until further use. Spodtera frugiperda cells were coinfected with baculovirus expressing a glu-tagged G protein β1 and baculovirus expressing a G protein […] at a 1:1 ratio of glu-tagged G protein β1 baculovirus to G protein β2 baculovirus. Sf9 cells are grown in 10 L bioreactors and harvested 48-72 hours post infection. Samples of infected cells were tested for G protein β1/β2 expression by Western Blot analysis, as described below. Cell lysates were homogenized and loaded onto a column of glu-tagged beads as in Biological Example 1 and competed off the column with a glu peptide as described in Biological Example 1. The inhibitory properties of the compounds in Table 1 were assayed in an in vitro PI3K assay. In a 96-well polypropylene plate, each well was spotted with 2 μL of […] the desired final concentration of compound in DMSO. Purified recombinant p101/p110γ protein (0.03 μg; 2.7 nM) and G protein β1/γ2 subunits (0.09 μg; 57.7 nM) for each reaction was combined in the assay buffer (30 mM HEPES, 100 mM NaCl, 1 mM EGTA, and 1 mM DTT). ATP and [γ-^32P-ATP] (0.09 μCi) were added to this mixture so that the final ATP concentration in the reaction was 20 μM. Lipid micelles were formed by sonicating phosphatidylinositol-4,5-diphosphate (PIP2), phosphatidylethanolamine (PE), and Na-cholate in the assay buffer for 10 minutes, adding MgCL2 and incubating on ice for 20 minutes, for final concentrations of 25 μM PIP2, 300 [M PE, 0.02% Na-cholate, and 10 mM MgCl2 in the reaction. The reactions were started by adding equal volumes lipid and enzyme mixture in a total volume of 50 μL, allowed to run for 20 minutes at room temperature, and stopped with 100 μL 75 mM H3PO4. The lipid product was transferred to a glass fiber filter plate and washed with 75 mM H3PO4 several times. The presence of radioactive lipid product (PIP3) was measured by adding Wallac Optiphase mix to each well and counting in a Wallac 1450 Trilux plate reader (PerkinElmer Life Sciences Inc., Boston, Mass. 02118).
A word on the IC50: it is the concentration needed to halve the response being measured. As for “4-(3-Chloro-4-fluoro-benzyl)-8-fluoro-6-(4-oxo-2-thioxo-thiazolidin-5-ylidenemethyl)-4H-benzo[1,4]oxazin-3-one [Example 309]”, the IC50 was 2 nM.
In the case of “4-Ethyl-6-(4-oxo-2-thioxo-thiazolidin-5-ylidenemethyl)-4H-benzo[1,4]oxazin-3-one [Example 139]”, the IC50 turned out to be 42 nM.
On to “4-Methyl-6-(4-oxo-2-thioxo-oxazolidin-5-ylidenemethyl)-4a,8a-dihydro-4H-benzo[1,4]oxazin-3-one, Potassium Salt [Example 204]”, for which the 50% inhibitory concentration (IC50) was determined as 16 nM.
With “5-{4-[3-(4-Methoxy-phenyl)-propyl]-3-oxo-3,4-dihydro-2H-benzo[1,4]oxazin-6-ylmethylene}-thiazolidine-2,4-dione [Example 125]”, the IC50 was found to be 18 nM.
For “8-Fluoro-4-(3-morpholin-4-yl-propyl)-6-(4-oxo-2-thioxo-thiazolidin-5-ylidenemethyl)-4H-benzo[1,4]oxazin-3-one [Example 242]”, the IC50 was determined as 55 nM.
As for `O=C1COc2ccc(C=C3SC(=S)NC3=O)cc2N1` [Example 1, 6-(4-Oxo-2-thioxo-thiazolidin-5-ylidenemethyl)-4H-1,4-benzoxazin-3-one], the concentration for half-maximal inhibition (IC50) was found to be 78 nM.
For `CN1C(=O)COc2ccc(C=C3SC(=S)NC3=O)cc21` [Example 2, 4-Methyl-6-(4-oxo-2-thioxo-thiazolidin-5-ylidenemethyl)-4H-1,4-benzoxazin-3-one], the IC50 worked out at 45 nM.
For the molecule `O=C(O)CN1C(=O)COc2ccc(C=C3SC(=S)NC3=O)cc21` [Example 3, [3-Oxo-6-(4-oxo-2-thioxo-thiazolidin-5-ylidenemethyl)-2,3-dihydro-1,4-benzoxazin-4-yl]-acetic acid], the IC50 was found to be 635 nM.
With `O=C1NC(=S)SC1=Cc1ccc2c(c1)N(Cc1ccccc1)C(=O)CO2` [Example 4, 4-Benzyl-6-(4-oxo-2-thioxo-thiazolidin-5-ylidenemethyl)-4H-1,4-benzoxazin-3-one], the IC50 came out at 23 nM.
Take `O=C1NC(=S)SC1=Cc1ccc2c(c1)N(CCc1ccccc1)C(=O)CO2` [Example 5, 6-(4-Oxo-2-thioxo-thiazolidin-5-ylidenemethyl)-4-phenethyl-4H-1,4-benzoxazin-3-one]: the IC50 came to 25 nM.
Turning to `COc1cc(C=C2SC(=S)NC2=O)cc2c1OCC(=O)N2` [Example 6, 8-Methoxy-6-(4-oxo-2-thioxo-thiazolidin-5-ylidenemethyl)-4H-1,4-benzoxazin-3-one], the IC50 is 560 nM.
For the molecule `COC(=O)CN1C(=O)COc2ccc(C=C3SC(=S)NC3=O)cc21` [Example 7, [3-Oxo-6-(4-oxo-2-thioxo-thiazolidin-5-ylidenemethyl)-2,3-dihydro-1,4-benzoxazin-4-yl]-acetic acid methyl ester], the IC50 amounted to 84 nM.
With `COC(=O)c1cccc(CN2C(=O)COc3ccc(C=C4SC(=S)NC4=O)cc32)c1` [Example 8, 3-[3-Oxo-6-(4-oxo-2-thioxo-thiazolidin-5-ylidenemethyl)-2,3-dihydro-1,4-benzoxazin-4-ylmethyl]-benzoic acid methyl ester], the IC50 was determined as 81 nM.
Next, `O=C1NC(=S)SC1=Cc1ccc2c(c1)N(Cc1ccc(-c3ccccc3)cc1)C(=O)CO2` [Example 9, 4-Biphenyl-4-ylmethyl-6-(4-oxo-2-thioxo-thiazolidin-5-ylidenemethyl)-4H-1,4-benzoxazin-3-one]: 61 nM; `O=C(O)CN1C(=O)C(=Cc2ccc3c(c2)NC(=O)CO3)SC1=S` [Example 10, [4-Oxo-5-(3-oxo-3,4-dihydro-2H-1,4-benzoxazin-6-ylmethylene)-2-thioxo-thiazolidin-3-yl]-acetic acid; compound with trifluoro-acetic acid]: 3630 nM.
On to `O=C1NC(=S)SC1=Cc1ccc2c(c1)N(Cc1ccc3ccccc3c1)C(=O)CO2` [Example 11, 4-Naphthalen-2-ylmethyl-6-(4-oxo-2-thioxo-thiazolidin-5-ylidenemethyl)-4H-1,4-benzoxazin-3-one], for which the IC50 amounted to 61 nM.
For the molecule `O=C1NC(=S)SC1=Cc1ccc2c(c1)N(Cc1cccnc1)C(=O)CO2` [Example 12, 6-(4-Oxo-2-thioxo-thiazolidin-5-ylidenemethyl)-4-pyridin-3-ylmethyl-4H-1,4-benzoxazin-3-one], the IC50 worked out at 27 nM.
`C[C@@H]1Oc2ccc(C=C3SC(=S)NC3=O)cc2NC1=O` [Example 13, (S)-2-Methyl-6-(4-oxo-2-thioxo-thiazolidin-5-ylidenemethyl)-4H-1,4-benzoxazin-3-one]: the IC50 amounted to 745 nM.
Next, `Cc1cc(C)cc(CN2C(=O)COc3ccc(C=C4SC(=S)NC4=O)cc32)c1` [Example 14, 4-(3,5-Dimethyl-benzyl)-6-(4-oxo-2-thioxo-thiazolidin-5-ylidenemethyl)-4H-1,4-benzoxazin-3-one]: 5 nM; `O=C1NC(=S)SC1=Cc1ccc2c(c1)N(Cc1cccc(OCc3ccccc3)c1)C(=O)CO2` [Example 15, 4-(3-Benzyloxy-benzyl)-6-(4-oxo-2-thioxo-thiazolidin-5-ylidenemethyl)-4H-1,4-benzoxazin-3-one]: 13 nM; `Cc1cc(C=C2SC(=S)NC2=O)c(C)c2c1OCC(=O)N2` [Example 16, 5,8-Dimethyl-6-(4-oxo-2-thioxo-thiazolidin-5-ylidenemethyl)-4H-benzo[1,4]oxazin-3-one]: 328 nM.
Next, `O=C1NC(=S)SC1=Cc1ccc2c(c1)N(Cc1cccc(C(=O)O)c1)C(=O)CO2` [Example 17, 3-[3-Oxo-6-(4-oxo-2-thioxo-thiazolidin-5-ylidenemethyl)-2,3-dihydro-1,4-benzoxazin-4-ylmethyl]-benzoic acid]: 9 nM; `C[C@@H]1Oc2ccc(C=C3SC(=S)NC3=O)cc2N(Cc2ccccc2)C1=O` [Example 18, (S)-4-Benzyl-2-methyl-6-(4-oxo-2-thioxo-thiazolidin-5-ylidenemethyl)-4H-1,4-benzoxazin-3-one]: 319 nM; `O=C1NC(=S)SC1=Cc1ccc2c(c1)N(Cc1ccc(CN3CCCCC3)cc1)C(=O)CO2` [Example 19, 4-(4-Piperidin-1-ylmethyl-benzyl)-6-(4-oxo-2-thioxo-thiazolidin-5-ylidenemethyl)-4H-1,4-benzoxazin-3-one]: 8 nM.
As for `O=C1NC(=S)SC1=Cc1ccc2c(c1)N(Cc1ccc(CN3CCOCC3)cc1)C(=O)CO2` [Example 20, 4-(4-Morpholin-4-ylmethyl-benzyl)-6-(4-oxo-2-thioxo-thiazolidin-5-ylidenemethyl)-4H-1,4-benzoxazin-3-one], the IC50 is 3 nM.
As for `CCN(CC)Cc1ccc(CN2C(=O)COc3ccc(C=C4SC(=S)NC4=O)cc32)cc1` [Example 21, 4-(4-Diethylaminomethyl-benzyl)-6-(4-oxo-2-thioxo-thiazolidin-5-ylidenemethyl)-4H-1,4-benzoxazin-3-one], the IC50 stood at 14 nM.
For the molecule `CC(=O)OCc1ccccc1CN1C(=O)COc2ccc(C=C3SC(=S)NC3=O)cc21` [Example 22, Acetic acid 2-[3-oxo-6-(4-oxo-2-thioxo-thiazolidin-5-ylidenemethyl)-2,3-dihydro-1,4-benzoxazin-4-ylmethyl]-benzyl ester], the IC50 came out at 17 nM.
With `O=C1NC(=S)SC1=Cc1ccc2c(c1)N(Cc1ccc(OCc3ccccc3)cc1)C(=O)CO2` [Example 23, 4-(4-Benzyloxy-benzyl)-6-(4-oxo-2-thioxo-thiazolidin-5-ylidenemethyl)-4H-1,4-benzoxazin-3-one], the IC50 was 5 nM.
On to `O=C1NC(=S)SC1=Cc1ccc2c(c1)N(Cc1ccccc1CO)C(=O)CO2` [Example 24, 4-(2-Hydroxymethyl-benzyl)-6-(4-oxo-2-thioxo-thiazolidin-5-ylidenemethyl)-4H-1,4-benzoxazin-3-one], for which the IC50 was 3 nM.
Turning to `O=C1NC(=S)SC1=Cc1ccc2c(c1)N(Cc1ccc(Oc3cccc4ccccc34)cc1)C(=O)CO2` [Example 25, 4-[4-(Naphthalen-1-yloxy)-benzyl]-6-(4-oxo-2-thioxo-thiazolidin-5-ylidenemethyl)-4H-1,4-benzoxazin-3-one], the IC50 worked out at 8 nM.
